Data taken from article PMC5707507 (2015).

Legend:
[1] = tested on: F10T (DNA, hairpin, hexaethylene glycol (HEG) linker between 8 and 9) TATAGCTATATAGCTATAT; experiment: FRET melting; details: 10 mM Li+; lithium cacodylate, pH 7.4; 5 µM compound; 0.2 µM DNA
[2] = tested on: ssDNA (DNA, single strand) CCAGTTCGTAGTAACCC; experiment: luminescence response; details: none stated in assay buffer; 10 mM Tris-HCl, pH 7.2; 1.5 µM complex; 5 µM DNA highest tested
[3] = tested on: ds26 (DNA, duplex) CAATCGGATCGAATTCGATCCGATTG; experiment: G4-FID, thiazole orange displacement; details: 100 mM KCl; 10 mM Tris-HCl, pH 7.2; 0.75 µM thiazole orange; <15% displaced at highest concentration 1.25 µM
[4] = tested on: c-myc (DNA, G4) TGAGGGTGGGTAGGGTGGGTAA; experiment: G4-FID, thiazole orange displacement; details: 100 mM KCl; 10 mM Tris-HCl, pH 7.2; 0.25 µM DNA; 0.50 µM thiazole orange displaced
[5] = tested on: F21T (DNA, G4) GGGTTAGGGTTAGGGTTAGGG; experiment: FRET melting; details: 100 mM K+; potassium cacodylate, pH 7.0; 5 µM compound; 0.2 µM DNA
[6] = tested on: c-myc (DNA, G4) TGAGGGTGGGTAGGGTGGGTAA; experiment: luminescence response; details: 20 mM KCl (annealing); 10 mM Tris-HCl, pH 7.2; 1.5 µM complex; 5 µM DNA; intensity ratio 7.5 over ds26, 5.5 over ssDNA

ΔTm [1] [°C] | binding [2] | DC50 [3] [nM] | G4DC50 [4] [µM] | ΔTm [5] | binding [6] | Compound
2 | no | > 1250 | 0.85 | ~ 6.0 °C | – | Cc1ccc(-c2ccc(C)cn2)nc1.[Ir+3].[c-]1ccccc1-c1nc2ccccc2[nH]1.[c-]1ccccc1-c1nc2ccccc2[nH]1
– | – | – | – | – | yes | Cc1ccc(-c2ccc(C)cn2)nc1.[Ir+3].[c-]1ccccc1-c1nc2ccccc2s1.[c-]1ccccc1-c1nc2ccccc2s1
